# From patent publication US20090202430A1, “COMPOSITION FOR CYTOCOMPATIBLE, INJECTABLE, SELF-GELLING POLYSACCHARIDE SOLUTIONS FOR ENCAPSULATING AND DELIVERING LIVE CELLS OR BIOLOGICALLY ACTIVE FACTORS” (BIO SYNTECH CANADA INC., priority 2002, published 2009)
# How the values were obtained:
# [1] = test system: cells; assay: Viability of cells maintained in cross-linker solution (FIG. 4A); format: cell-based; settings: cells incubated in 0.3% peroxide for the same time period (up to 72 hours)
# Method: FIG. 4A illustrates viability of cells maintained in hydroxyethyl cellulose, or glyoxal cross-linker for over an hour;
# In FIG. 4A, high viability is maintained after encapsulation in cross-linked chitosan with glyoxal, or hydroxyethyl cellulose-glyoxal. FIG. 4A illustrates that the active hydroxyethyl cellulose-cross linker is cytocompatible. Cells incubated up to 72 hours in active cross-linker remain over 95% viable. Cells incubated in 0.3% peroxide for the same time period are 100% non-viable. After mixing with chitosan and injecting through a syringe with a 26-gauge needle, encapsulated cells in solid gel remain over 95% viable. After mixing with chitosan and pouring into a petri, encapsulated cells in solid gel remain over 95% viable after 1 day of culture.
# [2] = test system: encapsulated cells; assay: MTT assay (live cell metabolism) and Hoechst DNA assay (cell proliferation) of cells in cross-linked chitosan gels (FIG. 4B); format: cell-based; settings: MTT and Hoechst DNA assays, after encapsulation
# Text: In FIG. 4B, as shown by MTT assay on day 1 encapsulated cells, hydroxyethyl cellulose offers additional protection to cells immediately post-encapsulation.
SMILES,non-viable cells [1],viability and proliferation of cells encapsulated in chitosan gel [2]
OO [peroxide],100%,
O=CC=O [glyoxal],,viable after encapsulation and proliferate in the gel
